Read-outs that look alike come from different tables or passages of the source. Each block holds one molecule with its values, some of them ahead of it.
Legend:
hPTP1B1–400 [1] = target: T1, hPTP1B1–400 (Homo sapiens, UniProt P18031); experiment: PTP1B inhibition, pNPP hydrolysis, long form; format: biochemical
T1 construct: h PTP1B 1–400 IC 50 (μM ± S.D); made in house
T1 sequence (P18031 1-400): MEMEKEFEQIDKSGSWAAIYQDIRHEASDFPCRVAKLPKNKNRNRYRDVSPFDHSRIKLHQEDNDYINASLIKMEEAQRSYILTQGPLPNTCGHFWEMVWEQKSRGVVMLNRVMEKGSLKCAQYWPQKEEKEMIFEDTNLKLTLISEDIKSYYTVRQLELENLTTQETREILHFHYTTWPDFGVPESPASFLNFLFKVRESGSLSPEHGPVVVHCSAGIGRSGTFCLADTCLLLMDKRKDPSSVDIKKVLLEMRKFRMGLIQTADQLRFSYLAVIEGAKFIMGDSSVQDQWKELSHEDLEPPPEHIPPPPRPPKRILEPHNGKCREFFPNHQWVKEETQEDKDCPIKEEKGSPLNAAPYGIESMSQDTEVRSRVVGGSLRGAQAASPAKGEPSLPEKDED

hPTP1B1–400 [2] = target: T1, hPTP1B1–400; experiment: PTP1B inhibition, pNPP hydrolysis, long form; format: biochemical; settings: pNPP substrate, 15 min 37 °C, pH 6.8; ± S.D
Method: The inhibitory activity of PTP1B was assessed using the long form of the PTP1B enzyme (hPTP1B1–400). This enzyme comprises a highly conserved N-terminal catalytic domain, known as the PTP domain (PTP1B1–300), in addition to an intrinsically disordered regulatory domain (PTP1B301–400).
The IC50 values obtained from these tests are detailed in Table .
(§1) Aliquots of 0–10 μL of the test compounds (triplicate) were taken and incubated for 15 min at 37 °C with 85 μL of Tris buffer solution (50 mM, pH 6.8) containing PTP1B enzyme and 5 μL of p-nitrophenyl phosphate substrate (pNPP, 10 mM). The absorbance of the hydrolysis product, p-nitrophenol (pNP), was measured at 405 nm using a 96-microplate absorbance reader (Accuris SmartReader 96). The inhibitory activity was determined according to eq . %enzyme=(A405b/A405c)×100 1 Where: % enzyme is the percentage of inhibition for PTP1B or TCPTP
(§2) The IC50 was calculated using regression analysis, eq : %inhibition=A100/1+(I/IC50)^s 2 Where: A100: Maximum inhibition

[3] = system: STZ-induced diabetic rats; settings: earlier study of the group; cited from earlier work
HFF-1 cells = experiment: Cytotoxicity, Sulforhodamine B assay; format: cell-based, human; settings: HFF-1 proliferation, 48-h incubation, 0.78 μM to 100 μM
Method: Given the significance of a drug candidate’s toxicity in relation to its inhibition potential, a cytotoxicity assay was conducted using Normal Human Foreskin Fibroblasts (HFF-1).
All assays were carried out in triplicate. Cell proliferation was determined by the Sulforhodamine B assay, and the half-maximal cytotoxic concentration (CC50) was determined by Probit analysis.

hPTP1B1–400 [4] = target: T1, hPTP1B1–400; experiment: Enzymatic kinetics studies (Lineweaver–Burk, model fitting); format: biochemical; settings: for inhibition type: hPTP1B1–400, best fit model; for Km / Vmax: hPTP1B1–400 with inhibitor
Method: Kinetic analyses were conducted using varying concentrations of substrate and inhibitor.
Five increasing concentrations of each inhibitor were tested, according to their previously determined IC50 values. The negative control was prepared by omitting the inhibitor in the presence of the enzyme and substrate. The Supporting Information includes detailed eqs (E1–E5) used to determine the kinetic parameters and mechanisms involved in PTP1B inhibition.
Equation 1 was used to obtain enzyme kinetic parameters by fitting data to the Michaelis-Menten model (Origin Pro
The equations defined for the following non-linear inhibition models were used to determine the mechanism of
PTP1B inhibition: competitive (E2), non-competitive (E3), uncompetitive (E4), and mixed (E5) (Origin Pro 2018 (64
(1+ ( ))(x05nh ) + (1+ ( )) (x05 nh)
Vmax is the maximum velocity, x is the substrate concentration, i is the inhibitor concentration, nh is the number of
Hill. Ki is the inhibition constant, and Km is the Michaelis constant.

hTCPTP1–415 [5] = target: T2, hTCPTP1–415 (Homo sapiens, UniProt P17706); experiment: TCPTP inhibitory activity; format: biochemical; settings: pNPP substrate; tested up to 100 μM
T2 construct: h TCPTP 1–415 IC 50 (μM ± S.D); made in house
T2 sequence (P17706 1-415): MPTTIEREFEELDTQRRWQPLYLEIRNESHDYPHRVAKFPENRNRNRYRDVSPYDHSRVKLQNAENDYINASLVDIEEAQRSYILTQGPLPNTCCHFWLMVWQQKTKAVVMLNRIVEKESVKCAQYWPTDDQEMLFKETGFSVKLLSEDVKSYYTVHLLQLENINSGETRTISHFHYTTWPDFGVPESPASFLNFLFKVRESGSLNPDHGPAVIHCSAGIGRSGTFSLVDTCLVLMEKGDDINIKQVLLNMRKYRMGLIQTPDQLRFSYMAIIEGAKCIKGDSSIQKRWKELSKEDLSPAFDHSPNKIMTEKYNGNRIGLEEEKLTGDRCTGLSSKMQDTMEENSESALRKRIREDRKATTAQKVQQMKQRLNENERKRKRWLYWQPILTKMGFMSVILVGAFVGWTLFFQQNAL
Method: The effectiveness and safety of a PTP1B inhibitor primarily depend on its selectivity, given that protein tyrosine phosphatases share significant structural homology within their catalytic domains. […] Ertiprotafib was also included in this study.
as §1, §2

hPTP1B1–393 = settings: reported elsewhere; cited from earlier work
hTCPTP1–415 [6] = target: T2, hTCPTP1–415; settings: read-out: hTCPTP1–415 IC50, cited from earlier work
[7] = system: insulin-resistant HepG2 cells; experiment: Western blotting, insulin-resistant HepG2 model; format: cell-based, human; settings: 24 h
Method: (§3) HepG2 cells were obtained directly from ATCC (HB-8065) and cultured in DMEM with low glucose, supplemented with fetal bovine serum, 100 U/mL penicillin G, and […] streptomycin. The media was freshly prepared and sterilized by filtration. Cells were maintained with a maximum of 10 passages before being discarded. For cell counting, the cells were washed twice with phosphate-buffered saline (PBS), trypsinized, and counted using a Neubauer chamber. For the insulin-resistant model, 75,000 cells per well were seeded in 6-well plates at 37 °C in 5% CO2 and cultured for 72 h. Subsequently, insulin (0.1 μM) was added to induce insulin resistance for 24 h. After this period, inhibitors were incubated for 24 h, followed by a final 30 min insulin stimulation (0.1 μM) before protein extraction. For the normal model, 75,000 cells per well were seeded in 6-well plates at 37 °C in 5% CO2 and cultured for 96 h. After that, the cells were incubated with the inhibitors for 24 h, followed by protein extraction.
(§4) Treated cells were washed twice with 1 mL of PBS, and proteins were extracted using 300 μL of a buffer solution containing 10% sodium deoxycholate in 10% TEAB, supplemented with a protease and phosphatase inhibitor cocktail. The extracts were heated at 80 °C for 5 min and dissociated by repeated passages through an insulin syringe. The cell extracts were centrifuged at 15,000 rpm for 15 min at 4 °C, and the supernatant was collected. Protein quantification was performed using the bicinchoninic acid assay, and aliquots were prepared for Western blotting. SDS-PAGE was conducted, and proteins were transferred onto a nitrocellulose membrane. The membrane was blocked with 10% skim milk in TBST for 1 h and incubated overnight with primary antibodies (1:400 dilution). Secondary antibodies conjugated to horseradish peroxidase were diluted 1:2,000, and the membranes were incubated for 1 h at room temperature. Blots were visualized using the ChemiDoc MP (Bio-Rad), and densitometric analysis was performed with ImageJ (U.S. National Institutes of Health). Statistical analyses were conducted using GraphPad Prism 8.0.
resistance model in HepG2 cells . a) Western blotting representative analysis (n=3) of PTP1B, p -AKT, p-IRS1 and p-STAT3 levels
of HepG2 cells treated with the compounds at 24 h of treatment. β-actin was employed as loading control. b) Densitometric
analysis of western blot images employing ImageJ analysis software. Bar graphs represent the mean ± SEM of normalized values.
The control levels were set to 1. Asterisks indicate statistical significance according to the Dunn test. p* < 0.05.
(§5) (1 picture or pasted object on this page, not shown here)

HepG2 cells [8] = experiment: Western blotting, HepG2 normal model; format: cell-based, human; settings: 24 h
Method: as §3, §4
compounds at 24 h of treatment. β-actin was employed as loading control. b) Densitometric analysis of western blot images
employing ImageJ analysis software. Bar graphs represent the mean ± SEM of normalized values. The control levels were set to
1. Asterisks indicate statistical significance according to the Dunn test. p* < 0.05
as §5

HepG2 cells [9] = experiment: Cell viability of HepG2 with crystal violet; format: cell-based, human; settings: 1, 10, and 30 µM for 24, 48 and 72 h
Method: A 96-well plate was seeded with 3,000 HepG2 cells per well and incubated for 72 h. Subsequently, the cells were treated with test compounds at various concentrations for 24, 48, and 72 h. After incubation, the medium was removed, and 100 μL of 1% glutaraldehyde was added for 15 min. The glutaraldehyde was then removed, and 50 μL of 0.5% crystal violet (dissolved in 25% methanol) was added for 30 min. The crystal violet staining solution was subsequently removed, and the plate was thoroughly rinsed with tap water. The precipitate was dissolved in a 10% acetic acid solution, mixed for 15 min, and the absorbance was measured at 590 nm using a plate reader (xMark Microplate Spectrophotometer, Bio-Rad).
Figure S48. Cell viability assessment by crystal violet staining. HepG2 cell viability was evaluated after treatment with the respective compounds at concentrations of 1 , 10, and 30 µM for 24 , 48 and 72 hours. Bar graphs represent mean ± SEM. No significant differences were detected using ANOVA. […]

hPTP1B1–400 [10] = target: T1, hPTP1B1–400; settings: footnote c: IC50 values retrieved from the reference; previously tested by our group; cited from earlier work
hPTP1B1–285 = target: T3, hPTP1B1–285 (Homo sapiens, UniProt P18031); settings: footnote c: IC50 values retrieved from the reference; cited from earlier work
T3 construct: h PTP1B 1–285 IC 50 (μM ± S.D); made in house
T3 sequence (P18031 1-285): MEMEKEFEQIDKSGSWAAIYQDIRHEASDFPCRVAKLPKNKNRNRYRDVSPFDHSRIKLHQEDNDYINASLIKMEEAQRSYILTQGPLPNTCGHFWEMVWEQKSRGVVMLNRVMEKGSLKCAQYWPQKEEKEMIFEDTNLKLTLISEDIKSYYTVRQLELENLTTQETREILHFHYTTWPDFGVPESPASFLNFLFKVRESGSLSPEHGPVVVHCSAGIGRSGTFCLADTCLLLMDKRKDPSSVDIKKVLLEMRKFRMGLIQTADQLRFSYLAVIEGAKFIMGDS

SMILES: CC1(C)c2c(cnn2-c2ccc(C(=O)O)cc2)C[C@]2(C)[C@H]3C(=O)C=C4[C@@H]5C[C@@](C)(C(=O)O)CC[C@]5(C)CC[C@@]4(C)[C@]3(C)CC[C@@H]12 [compound 5e, (20β)-2′-(4-Carboxyphenyl)-11-oxo-2′H-oleana-2,12-dieno[3,2-c]pyrazol-29-oic Acid]
stability during evaluation (hPTP1B1–400 [1]): unstable and rapidly degraded during evaluation

IC50 (hPTP1B1–400 [2]): 1.75 ± 0.08 µM
SMILES: CC1(C)c2[nH]c3ccc(C(F)(F)F)cc3c2C[C@]2(C)[C@H]3C(=O)C=C4[C@@H]5C[C@@](C)(C(=O)O)CC[C@]5(C)CC[C@@]4(C)[C@]3(C)CC[C@@H]12 [FC-114, reference compound]
antihyperglycemic effects [3]: superior antihyperglycemic effects compared to glibenclamide and acarbose, but did not outperform pioglitazone
CC50 (HFF-1 cells): 59.5 ± 3 µM

inhibition type (hPTP1B1–400 [4]): uncompetitive
Km (hPTP1B1–400 [4]): 940 ± 190 µM
Vmax (hPTP1B1–400 [4]): 1.71 ± 0.24 mM/min
IC50 (hTCPTP1–415 [5]): > 100 µM
SMILES: Cc1cc(-c2c3ccccc3c(Br)c3sc(C)c(C)c23)cc(C)c1O[C@H](Cc1ccccc1)C(=O)O [Ertiprotafib, reference compound]
inhibition type (hPTP1B1–393): noncompetitive inhibition

SMILES: C[C@H]1[C@H](C)CC[C@]2(C(=O)O)CC[C@]3(C)C(=CC[C@@H]4[C@@]5(C)CC[C@H](O)C(C)(C)[C@@H]5CC[C@]43C)[C@H]12 [Ursolic acid]
IC50 (hTCPTP1–415 [6]; footnote b: IC50 values retrieved from the reference): > 400 µM
AKT phosphorylation (p-AKT) levels [7]: did not show significant changes
PTP1B levels [7]: neither metformin, ursolic acid, nor the GA derivatives significantly reduced PTP1B levels
p-IRS levels [7]: did not show significant changes
p-STAT3 levels [7]: did not show significant changes
inhibition type (hPTP1B1–400 [4]): mixed-type
inhibition type (hPTP1B1–400 [4]; listed as ursolic acid): mixed
Km (hPTP1B1–400 [4]): 1700 ± 330 µM
Vmax (hPTP1B1–400 [4]): 0.63 ± 0.08 mM/min
AKT phosphorylation (p-AKT) levels (HepG2 cells [8]): did not show significant changes
PTP1B levels (HepG2 cells [8]): neither metformin, ursolic acid, nor the GA derivatives significantly reduced PTP1B levels
p-IRS levels (HepG2 cells [8]): did not show significant changes
p-STAT3 levels (HepG2 cells [8]): did not show significant changes
HepG2 cell viability (HepG2 cells [9]): No significant differences

SMILES: O=C(O)C(=O)Nc1sc2c(c1C(=O)O)CCNC2 [TCS401]
IC50 (hTCPTP1–415 [6]; footnote c: IC50 values retrieved from the reference, previously tested by our group): 6.7 ± 0.6 µM
IC50 (hPTP1B1–400 [10]): 8.1 ± 1 µM
IC50 (hPTP1B1–285): 12.4 ± 1 µM

— article PMC12921516 (ACS Bio & Med Chem Au, 2025)
